Ki data for 1 compound are collected here from paper PMC11591752, “Novel Inhibitory Actions of Neuroactive Steroid [3α,5α]-3-Hydroxypregnan-20-One on Toll-like Receptor 4-Dependent Neuroimmune Signaling” (Biomolecules, 2024).

The structures appear in SMILES notation.

For orientation: Ki means a measure of affinity in units of concentration, obtained from inhibition or displacement. Read a low Ki as higher affinity.

The target of the assay is T1, MD-2 (Homo sapiens, UniProt Q9Y6Y9).
T1 construct: gene LY96; Recombinant human MD-2 (R&D Systems #1787-MD-050/CF), covalently immobilized
T1 sequence (Q9Y6Y9 19-160): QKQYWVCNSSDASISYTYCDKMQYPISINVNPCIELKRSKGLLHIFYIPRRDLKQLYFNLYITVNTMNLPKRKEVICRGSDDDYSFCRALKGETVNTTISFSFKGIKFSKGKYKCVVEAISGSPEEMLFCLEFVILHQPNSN
Briefly: SPR competition assay: inhibition of Lipid A binding to immobilized hMD-2.

Regarding `CC(=O)[C@H]1CC[C@H]2[C@@H]3CC[C@H]4C[C@H](O)CC[C@]4(C)[C@H]3CC[C@]12C` [3α,5α-THP, (3α,5α)-3-hydroxypregnan-20-one], the affinity corresponds to a Ki of 4.5 ± 1.7 nM.
